Laboratory results published in PubChem BioAssay (NCI).
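The compound was tested at five concentrations on cells cultured in 96-well plates, with a 48-hour exposure period. GI50 is the concentration that inhibits growth by half. TGI: concentration producing complete growth inhibition.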

Columns and labels:
Test in all cases: NCI anticancer screen, dose series, 48 h
[1] = system: LXFL 529 NSCLC
[2] = system: KM20L2 colon
[3] = system: HOP-18 NSCLC
[4] = system: DMS 273 small cell lung
[5] = system: M19-MEL melanoma
[6] = system: SNB-78 CNS
[7] = system: XF 498 CNS
[8] = system: DLD-1 colon

| Compound | TGI [1] | TGI [2] | TGI [3] | TGI [4] | TGI [5] | TGI [6] | TGI [7] | TGI [8] | GI50 [4] | GI50 [5] | GI50 [1] | GI50 [2] | GI50 [3] | GI50 [6] | GI50 [7] | GI50 [8] |
| --- | --- | --- | --- | --- | --- | --- | --- | --- | --- | --- | --- | --- | --- | --- | --- | --- |
| Cc1c(/C=N/NS(=O)(=O)c2ccccc2)no[n+]1[O-] | > 100 µM | > 100 µM | > 100 µM |  |  |  |  |  |  |  |  |  |  |  |  |  |
| CCOc1ccc(N=Cc2cccc3cccnc23)cc1 | > 100 µM | > 100 µM | > 100 µM | > 100 µM | > 100 µM | > 100 µM | > 100 µM | > 100 µM |  |  |  |  |  |  |  |  |
| CC(O)/C=C/C(CCC(C)CO)C(C)C (configuration not stated) | > 100 µM |  |  | > 100 µM | > 100 µM | > 100 µM | > 100 µM | > 100 µM |  |  |  |  |  |  |  |  |
| COc1ccc(C=C2C(=O)OC(C)(C)OC2=O)cc1OC | > 100 µM | > 100 µM |  |  | > 100 µM | > 100 µM | > 100 µM | > 100 µM |  |  |  |  |  |  |  |  |
| CCCCCCCCCCCCCCCCCC(=O)OCC(CN(C)CCN(C)C)OC(=O)CCCCCCCCCCCCCCCCC (configuration not stated) | > 100 µM | > 100 µM | 89 µM | > 100 µM |  | > 100 µM |  | > 100 µM |  |  |  |  |  |  |  |  |
| COc1ccc(/C=N/N=C(\N)NO)cc1OC | > 100 µM | > 100 µM |  | > 100 µM | > 100 µM | > 100 µM | > 100 µM | > 100 µM |  |  |  |  |  |  |  |  |
| O=S(=O)([O-])c1cccc2cccc(N=Cc3ccccc3[O-])c12.O=S(=O)([O-])c1cccc2cccc(N=Cc3ccccc3[O-])c12.[O]=[U]=[O] | > 100 µM | > 100 µM | > 100 µM | > 100 µM | > 100 µM | > 100 µM | > 100 µM | > 100 µM | 42.7 µM | > 100 µM | 54.5 µM | > 100 µM | > 100 µM | > 100 µM | > 100 µM | > 100 µM |
| O=C1C=C[C@@]23CC1C(O)C[C@H]2C=Cc1ccccc13 (some centres not stated) | > 100 µM | > 100 µM |  |  | > 100 µM |  | > 100 µM | > 100 µM |  |  |  |  |  |  |  |  |
| C/C(O)=C(\N=O)C(=O)NCCc1ccccc1 | > 100 µM | > 100 µM | > 100 µM | > 93.4 µM | > 100 µM | > 100 µM | > 31.6 µM | > 100 µM |  |  |  |  |  |  |  |  |
| Cc1ccc(NC(=O)CC2C(=O)Nc3ccccc3S2=O)cc1C (configuration not stated) | > 100 µM | > 100 µM |  | > 100 µM | > 100 µM | > 100 µM | > 100 µM | > 100 µM |  |  |  |  |  |  |  |  |
| Cc1cccc(C(C)(C)C)c1NC(=O)C(=O)C(C(=O)/C=C\c1ccccc1)C1OC(=O)c2ccccc21 (configuration not stated) | > 100 µM | > 100 µM | > 100 µM |  | > 100 µM | > 100 µM | > 100 µM | > 100 µM |  |  |  |  |  |  |  |  |
| Clc1ccc(-n2nnc(C3=NCCN3)c2-c2ccccc2)cc1 | > 100 µM | > 100 µM | > 100 µM | > 100 µM | > 100 µM | > 100 µM | > 100 µM | > 100 µM |  |  |  |  |  |  |  |  |
| Cc1ccccc1-c1c(N)nc(NC#N)nc1C(=O)Nc1ccccc1 | > 100 µM | > 100 µM | > 100 µM | > 100 µM | > 100 µM | > 100 µM |  | > 100 µM |  |  |  |  |  |  |  |  |
| [Cl][Bi]([O]c1ccccn1)[O]c1ccccn1 |  | > 100 µM |  | > 100 µM |  |  | > 100 µM | > 100 µM | > 100 µM |  |  | > 100 µM |  |  | > 100 µM | > 100 µM |
| O=C(O)CNc1c2ccccc2nc2ccccc12 | > 100 µM | > 100 µM |  | > 100 µM |  |  | > 100 µM | > 100 µM |  |  |  |  |  |  |  |  |
| N#CC(C(=O)/C(=N/N)C(C#N)c1ccc(Cl)cc1)c1ccc(Cl)cc1 (configuration not stated) | > 100 µM | > 100 µM | > 100 µM |  | > 100 µM | > 100 µM | > 100 µM | > 100 µM |  |  |  |  |  |  |  |  |
| CC(=O)OC1C(=O)C(O)C(C)OC1O[C@@H]1C[C@@]2(C)[C@@H]3CC=C4[C@@H](C[C@H](O)C(=O)C4(C)C)[C@]3(C)C(=O)C[C@]2(C)[C@H]1[C@@](C)(O)C(=O)/C=C/C(C)(C)O (some centres not stated) | > 10 µM | 8.3 µM | 4.9 µM |  | > 10 µM |  | 0.64 µM | > 10 µM | 0.0452 µM |  |  |  |  | 0.0626 µM |  |  |
